Reference: US20240368163A1, “COMPOUNDS AND METHODS FOR MODULATING SPLICING” (REMIX THERAPEUTICS INC., priority 2021, published 2024)
pIC50: −log10 of the molar value.

Columns and labels:
[1] = tested on: MDCK-BCRP or MDCKII-MDR1 cells; experiment: Transwell assay for membrane efflux and permeability; type: in vitro ADME, Canine; settings: test compound 1 μM, 2 hours at 37° C.
Summary of the method: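 Transport measured over 2 h at 37 °C with compounds at 1 μM final in HBSS containing 0.5% DMSO. Monolayers of BCRP-expressing MDCK or MDR1-expressing MDCKII cells were cultured 4-8 days, then HBSS-washed and equilibrated 30 min at 37 °C before dosing.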

[2] = tested on: Target C; experiment: HiBiT protein abundance assay, Target C; type: cell-based, human; settings: Table 13A, modified K562 cells
Summary of the method: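 Cells carrying the HiBiT knock-in were plated at 10000 cells/well, dosed with compound (10-point, 3-fold, 10 μM top final) and incubated 24 hours at 37 °C. Lytic reagent was then added and luminescence read. Percent response fed a 4PL fit for IC50.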

| Compound | Permeability (Papp) [1] | pIC50 ([2]; Homo sapiens, K562, 24 h) | Efflux Ratio [1] | pIC50 ([2]; 24 hours) |
| --- | --- | --- | --- | --- |
| Fc1cc(-c2ccc(OC3CC4CC(F)(F)C(C3)N4)nn2)c2[nH]ncc2c1-c1cn[nH]c1 (centres unmarked) [Compound 313, 7-[6-({6,6-difluoro-8-azabicyclo[3.2.1]octan-3-yl}oxy)pyridazin-3-yl]-5-fluoro-4-(1H-pyrazol-4-yl)-1H-indazole] | C (C represents a Papp greater than 6×10^−6 cm S^−1) | 6.00 to 7.00 |  |  |
| CN(c1ccc(-c2ccc(-c3cn[nH]c3)c3ncsc23)nn1)[C@H]1C[C@H]2COC[C@@H](C1)N2 [Compound 356, (endo)-N-methyl-N-{6-[4-(1H-pyrazol-4-yl)-1,3-benzothiazol-7-yl]pyridazin-3-yl}-3-oxa-9-azabicyclo[3.3.1]nonan-7-amine] | A (A represents a Papp <2×10^−6 cm s^−1) |  | C (C represents a ratio greater than 5) | > 7.00 |
